Results: patent EP2527351B1, “Lipophosphonoxins, method of their preparation and use” (priority 2011, dated 2012)
≈ marks a conversion by molar mass, not a printed value.

What was measured:
[1] = system: S. haemolyticus 16568; assay: Microdilution MIC, resistant strain; settings: fluoroquinolone-resistant strain, 24/48 hours at 37°C
Description: (§2) Antimicrobial activity is assessed using the standard microdilution method determining the minimum inhibitory concentration (MIC) of the tested samples leading to inhibition of bacterial growth. Disposable microtitration plates are used for the tests. The samples were diluted in brain heart infusion broth (Himedia, Laboraties Pvt. Ltd., ? eská republika) and Mueller-Hinton broth (HiMedia Laboraties, see above) to yield a concentration range between 200 µg/ml and 1.5625 µg/ml. The plates are inoculated with a standard amount of the tested microbe - the inoculum density in each well is equal to 10^5-6 CFU/ml. The MIC is read after 24/48 hours of incubation at 37°C as the minimum inhibitory concentration of the tested substance that inhibits the growth of the bacterial strains.
(§3) Standard reference bacterial strains (E. faecalis CCM 4224, S. aureus CCM 4223) from the Czech Collection of Microorganisms (CCM), Faculty of Science, Masaryk University Brno, S. agalactiae, B. subtilis, methicilin-resistant S. aureus 4591, fluoroquinolone-resistant S. haemolyticus 16568, vancomycin-resistant E. faecium VanA419/ana and methicilin-resistant S. epidermidis 8700/B strains obtained from the Teaching Hospital Olomouc were used. All tested microorganisms were stored in cryotubes (ITEST plus, Czech Republic) at -80°C. […]

[2] = system: S. epidermidis 8700/B; assay: Microdilution MIC, resistant strain; settings: methicilin-resistant strain, 24/48 hours at 37°C
Description: as §2, §3

[3] = system: E. faecalis CCM 4224; assay: Microdilution MIC, reference strain; settings: read after 24/48 hours at 37°C
Description: as §2
(§4) Standard reference bacterial strains (E. faecalis CCM 4224, S. aureus CCM 4223) from the Czech Collection of Microorganisms (CCM), Faculty of Science, Masaryk University Brno, S. agalactiae, B. subtilis, methicilin-resistant S. aureus 4591, fluoroquinolone-resistant S. haemolyticus 16568, vancomycin-resistant E. faecium VanA419/ana and methicilin-resistant S. epidermidis 8700/B strains obtained from the Teaching Hospital Olomouc were used. All tested microorganisms were stored in cryotubes (ITEST plus, Czech Republic) at -80°C.

[4] = system: normal erythroid progenitor cells; assay: CellTiter-Blue Cell Viability Assay; assay type: cell-based, Human; settings: 48 hours of incubation
Description: Human immature erythroid progenitors isolated from umbilical cord blood are cultivated in the StemSpan serum-free medium (StemCell Technologies) in the presence of the stem cell factor (SCF, 100 ng/ml), erythropoetin (EPO, 33.34 nkat/ml) and dexamethasone (1 µmol.l^-1) (Panzenbock et al. 1998). Cells are plated at 25000 cells/well/20 µl in 384-well plates immediately before addition of lipophosphonoxine compound from particular examples. After 48 hours of incubation at 37 °C in 5% CO2 viability is determined by using the commercial CellTiter-Blue® Cell Viability Assay (Promega, Cat.# G8082). The assay is based on the ability of living cells to convert a redox dye (resazurin) into a fluorescent end product (resorufin). […] The homogeneous assay procedure involves adding the single reagent directly to cells cultured in serum-supplemented medium. After an incubation step, data are recorded.
(§1) The fluorescence intensity is measured using the EnVision plate reader (PerkinElmer). Data are analyzed using GraphPad Prism 5.0 statistical software.

[5] = system: E. faecium VanA 419/ana; assay: Microdilution MIC, resistant strain; settings: vancomycin-resistant strain, 24/48 hours at 37°C
Description: as §2, §3

[6] = system: S.agalactiae; assay: Microdilution MIC, reference strain; settings: read after 24/48 hours at 37°C
Description: as §2, §4

[7] = system: normal human erythroid progenitor cells; assay: CytoTox-ONE Homogeneous Membrane Integrity Assay (LDH release); assay type: cell-based; settings: cytotoxicity, CytoToxOne, after 4 hours
Description: Human immature erythroid progenitors isolated from umbilical cord blood are cultivated in the StemSpan serum-free medium (StemCell Technologies) in the presence of the stem cell factor (SCF, 100 ng/ml), erythropoetin (EPO, 33.34 nkat/ml) and dexamethasone (1 µmol.l^-1) (Panzenbock et al. 1998). Cells are plated at 25000 cells/well/20 µl in 384-well plates immediately before addition of lipophosphonoxine compound from particular examples. After 48 hours of incubation at 37 °C in 5% CO2 viability is determined by using the commercial CellTiter-Blue® Cell Viability Assay (Promega, Cat.# G8082). […] After an incubation step, data are recorded.
Cytotoxicity is determined after 4 hours at 37 °C in 5% CO2 using commercial CytoTox-ONE™ Homogeneous Membrane Integrity Assay (Promega, Cat.# G7892), a fluorometric method for estimating the number of non-viable cells present in multiwell plates. […] LDH released into the culture medium is measured with a 10-minute coupled enzymatic assay that results in the conversion of resazurin into a fluorescent resorufin product. The amount of fluorescence produced is proportional to the number of lysed cells.
as §1

[8] = system: S. aureus MRSA 4591; assay: Microdilution MIC, resistant strain; settings: methicilin-resistant strain, 24/48 hours at 37°C
Description: as §2, §3

[9] = system: B. subtilis; assay: Microdilution MIC, reference strain; settings: read after 24/48 hours at 37°C
Description: as §2, §4

[10] = system: Giardia trophozoite growth; settings: cited from earlier work
[11] = system: cyst formation; settings: cited from earlier work
[12] = system: mice; settings: mouse, in vivo; cited from earlier work
[13] = system: Mycobacterium tuberculosis strains; settings: drug-susceptible strains, in vitro; cited from earlier work

Compound	MIC S. epidermidis 8700/B [2]	MIC E. faecalis CCM 4224 [3]	IC50 [4]	[Max. safety concentration] [4]	MIC E. faecium VanA 419/ana [5]	MIC S.agalactiae [6]	MIC B. subtilis [9]	further results
CCCCCCCCCCCCCCOP(=O)(CCN1C[C@@H](O)[C@H](O)C1)OC[C@H]1O[C@@H](n2ccc(=O)[nH]c2=O)[C@H](O)[C@@H]1O (stereo partly drawn) [Example 17, Tetradecyl uridin-5'-yl 2-([3R,4R]-3,4-dihydroxypyrrolidin-l-N-yl)ethylphosphonate]	12,5 µg/ml	12,5 µg/ml	47 µg/mL (≈ 74.2 µM)	31 µg/mL	12,5 µg/ml	6,25 µg/ml	6,25 µg/ml	MIC S. haemolyticus 16568 [1]: 12,5 µg/ml; EC50 [7]: 302 µg/mL (≈ 477 µM); [Max. safety concentration] [7]: 125 µg/mL; MIC S. aureus MRSA 4591 [8]: 25 µg/mL (≈ 39.4 µM)
O=c1ccn([C@@H]2O[C@H](COP(=O)(O)CCN3C[C@@H](O)[C@H](O)C3)[C@@H](O)[C@H]2O)c(=O)[nH]1 [phosphonoxin]	–	–	–	–	–	–	–	vegetative growth [10]: potently inhibited; cyst formation [11]: did not specifically inhibit
Hexadecyloxypropyl uridin-5'-yl 2-([3R,4S,5S]-3,4-trihydroxypiperidin-1-N-yl)ethyl-phosphonate [Example 12]	–	–	141 µg/mL	62 µg/mL	–	12,5 µg/ml	–	–
Hexadecyloxypropyl uridin-5'-yl 2-([3R,5R]-3,4-dihydroxypiperidin-1-N-yl)ethyl-phosphonate [Example 11]	6,25 µg/ml	12,5 µg/ml	40 µg/mL	31 µg/mL	6,25 µg/ml	6,25 µg/ml	6,25 µg/ml	–
Hexadecyloxypropyl uridin-5'-yl 2-([3R,5R]-3,4-dihydroxypiperidin-1-N-yl)ethylphosphonate [Example 13]	–	–	45 µg/mL	15 µg/mL	–	6,25 µg/ml	–	–
caprazamycins [CPZs]	–	–	–	–	–	–	–	toxicity in mice [12]: no significant toxicity; MIC [13]: 3.13 µg/mL
